# System: CCRF-CEM
# Assay: Concentration required for inhibitory activity against CEM cells in a whole cell assay
# Format: functional
# Details: Homo sapiens, read-out: ED50 (the source's name)
row,SMILES,EC50 [nM]
1,CC(C)(C)NC(=O)[C@@H]1C[C@@H]2CCCC[C@@H]2CN1C[C@@H](O)[C@H](Cc1ccccc1)NC(=O)[C@H](CC(N)=O)NC(=O)c1ccc2ccccc2n1,1.5
2,CC(C)(C)NC(=O)[C@@H]1C[C@@H]2CCCC[C@@H]2CN1C[C@@H](O)[C@H](CSc1ccc2ccccc2c1)NC(=O)[C@H](CC(N)=O)NC(=O)c1ccc2ccccc2n1,1.4
3,CC(C)(C)NC(=O)[C@@H]1C[C@@H]2CCCC[C@@H]2CN1C[C@@H](O)[C@H](CSc1ccccc1)NC(=O)[C@H](CC(N)=O)NC(=O)c1ccc2ccccc2n1,1.3

# System: CCRF-CEM
# Assay: Concentration required for inhibitory activity against CEM cells in a whole cell assay.
# Format: functional
# Details: Homo sapiens, read-out: ED50 (the source's name)
row,SMILES,EC50 [nM]
1,CC(C)(C)NC(=O)c1ccccc1C[C@@H](O)[C@H](Cc1ccccc1)NC(=O)[C@H](CC(N)=O)NC(=O)c1ccc2ccccc2n1,23

# Target: Human immunodeficiency virus type 1 protease (Human immunodeficiency virus 1, UniProt Q72874)
# Assay: Inhibitory activity against HIV-1 protease
# Details: not given
row,SMILES,IC50 [nM]
1,CC(C)(C)NC(=O)c1ccccc1C[C@@H](O)[C@H](CSc1ccccc1)NC(=O)[C@H](CC(N)=O)NC(=O)OCc1ccccc1,14
2,CC(C)(C)NC(=O)c1ccccc1C[C@@H](O)[C@H](CSc1ccccc1)NC(=O)[C@H](CC(N)=O)NC(=O)c1ccc2ccccc2n1,1.1
3,CC(C)(C)NC(=O)c1ccccc1C[C@@H](O)[C@H](CSc1ccccc1)NC(=O)CCC(N)=O,> 150
4,CC(C)(C)NC(=O)c1ccccc1C[C@@H](O)[C@H](CSc1ccc2ccccc2c1)NC(=O)[C@H](CC(N)=O)NC(=O)c1ccc2ccccc2n1,< 0.25
5,CC(C)(C)NC(=O)c1ccccc1C[C@@H](O)[C@H](CSc1ccc2ccccc2c1)NC(=O)[C@H](CC(N)=O)NC(=O)OCc1ccccc1,1.5
6,CC(C)(C)NC(=O)[C@@H]1C[C@@H]2CCCC[C@@H]2CN1C[C@@H](O)[C@H](CSc1ccc2ccccc2c1)NC(=O)[C@H](CC(N)=O)NC(=O)c1ccc2ccccc2n1,< 0.25
7,CC(=O)N[C@@H](CC(N)=O)C(=O)N[C@@H](CSc1ccc2ccccc2c1)[C@H](O)Cc1ccccc1C(=O)NC(C)(C)C,1.1
8,CC(=O)N[C@@H](CC(N)=O)C(=O)N[C@@H](CSc1ccccc1)[C@H](O)Cc1ccccc1C(=O)NC(C)(C)C,19
9,CC(C)(C)NC(=O)[C@@H]1C[C@@H]2CCCC[C@@H]2CN1C[C@@H](O)[C@H](CSc1ccccc1)NC(=O)[C@H](CC(N)=O)NC(=O)c1ccc2ccccc2n1,1.5
10,CC(C)(C)NC(=O)c1ccccc1C[C@@H](O)[C@H](CSc1ccc2ccccc2c1)NC(=O)CCC(N)=O,> 80
